Biological target: T1, YSK4 (h) (Homo sapiens, UniProt Q56UN5)
T1 construct: purchased Millipore
T1 sequence (Q56UN5 1-1328): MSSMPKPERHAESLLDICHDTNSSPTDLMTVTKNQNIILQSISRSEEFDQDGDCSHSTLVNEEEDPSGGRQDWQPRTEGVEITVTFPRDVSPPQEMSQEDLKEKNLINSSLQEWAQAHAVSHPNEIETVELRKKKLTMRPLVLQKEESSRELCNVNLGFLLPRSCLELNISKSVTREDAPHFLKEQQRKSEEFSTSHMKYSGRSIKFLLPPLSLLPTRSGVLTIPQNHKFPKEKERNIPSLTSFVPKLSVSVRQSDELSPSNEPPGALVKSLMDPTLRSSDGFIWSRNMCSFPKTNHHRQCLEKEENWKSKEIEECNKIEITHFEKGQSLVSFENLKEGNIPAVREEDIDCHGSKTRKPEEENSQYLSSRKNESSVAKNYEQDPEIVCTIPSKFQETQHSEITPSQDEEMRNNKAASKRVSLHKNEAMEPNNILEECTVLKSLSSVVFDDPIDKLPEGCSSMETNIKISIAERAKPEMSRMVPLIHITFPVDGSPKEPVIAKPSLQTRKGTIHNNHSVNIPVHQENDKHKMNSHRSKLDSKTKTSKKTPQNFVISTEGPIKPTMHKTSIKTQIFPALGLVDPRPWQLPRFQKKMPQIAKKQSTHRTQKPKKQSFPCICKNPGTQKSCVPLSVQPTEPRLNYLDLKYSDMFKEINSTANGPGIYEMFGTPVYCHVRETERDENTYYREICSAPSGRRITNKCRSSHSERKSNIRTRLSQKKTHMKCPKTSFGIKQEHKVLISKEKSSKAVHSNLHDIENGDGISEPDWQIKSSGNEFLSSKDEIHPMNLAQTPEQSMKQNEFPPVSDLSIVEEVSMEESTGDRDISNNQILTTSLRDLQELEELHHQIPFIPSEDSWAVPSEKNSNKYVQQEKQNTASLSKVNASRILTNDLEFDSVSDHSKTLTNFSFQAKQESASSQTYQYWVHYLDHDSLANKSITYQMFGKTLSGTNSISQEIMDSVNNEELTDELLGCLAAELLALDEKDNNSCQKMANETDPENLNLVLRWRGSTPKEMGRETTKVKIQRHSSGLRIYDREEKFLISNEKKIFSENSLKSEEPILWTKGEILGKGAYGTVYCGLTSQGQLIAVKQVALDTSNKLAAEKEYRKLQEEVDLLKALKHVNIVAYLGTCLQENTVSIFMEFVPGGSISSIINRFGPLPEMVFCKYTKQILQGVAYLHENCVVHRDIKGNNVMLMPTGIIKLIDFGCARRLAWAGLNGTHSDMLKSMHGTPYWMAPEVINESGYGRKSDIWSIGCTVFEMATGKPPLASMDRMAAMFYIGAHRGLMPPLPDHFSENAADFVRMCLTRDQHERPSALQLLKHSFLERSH
Assay: Commercial kinase activity assay (Millipore, 33P-ATP filter)
Format: biochemical
Conditions: 10 μM test compound
Description: LOK (h) was incubated with 8 mM MOPS pH 7.0, 0.2 mM EDTA, 250 μM […], 10 mM MgAcetate and [γ-^33P-ATP] (specific activity approx. 500 cpm/pmol, concentration as required). The reaction was initiated by the addition of the MgATP mix. After incubation for 40 minutes at room temperature, the reaction was stopped by the addition of 3% phosphoric acid solution. 10 μL of the reaction was then spotted onto a P30 filtermat and washed three times for 5 minutes in 75 mM phosphoric acid and once in methanol prior to drying and scintillation counting. PI3K p110β/p85α (h) PI3K (p110β/p85α) (h) was incubated in assay buffer containing 10 μM phosphatidylinositol-4,5-bisphosphate and MgATP (concentration as required). The reaction was initiated by the addition of the MgATP mix. After incubation for 30 minutes at room temperature, the reaction was stopped by the addition of stop solution containing EDTA and biotinylated phosphatidylinositol-3,4,5-trisphosphate. Finally, detection buffer was added, which contains europium-labelled anti-GST monoclonal antibody, GST-tagged GRP1 PH domain and streptavidinallophycocyanin. The plate was then read in time-resolved fluorescence mode and the homogenous time-resolved fluorescence (HTRF®) signal determined according to the formula HTRF=10000×(Em665nm/Em620 nm). YSK4 (h) YSK4 (h) was incubated with 8 mM MOPS pH 7.0, 0.2 mM EDTA, 250 […], 10 mM MgAcetate and [γ-^33P-ATP] (specific activity approx. 500 cpm/pmol, concentration as required). The reaction was initiated by the addition of the MgATP mix. After incubation for 40 minutes at room temperature, the reaction was stopped by the addition of 3% phosphoric acid solution. 10 μL of the reaction was then spotted onto a P30 filtermat and washed three times for 5 minutes in 75 mM phosphoric acid and once in methanol prior to drying and scintillation counting. PI4KA (PI4K alpha) The 2× PI4KA (PI4K alpha)/PI Lipid Kinase Substrate mixture was prepared in 20 mM Tris, pH 7.5, 0.4% Triton X-100, 5 mM MgCl2, 0.5 mM EGTA. The final 10 μL Kinase Reaction consisted of 75-300 ng PI4KA (PI4K alpha) and 100 μM PI Lipid Kinase Substrate in 7.5 mM HEPES, 10 mM Tris, pH 7.5, 0.2% Triton X-100, 2.5 mM MgCl2, 0.25 mM EGTA. After the 1 hour Kinase Reaction incubation, 5 μL of Detection Mix consisting of a europium labeled anti-ADP antibody, an Alexa Fluor® 647 labeled ADP tracer, and EDTA (to stop the kinase reaction) was added to the assay well. ADP formed by the kinase reaction (in the absence of an inhibitor) displaced the Alexa Fluor® 647 labeled ADP tracer from the antibody, resulting in a decrease in the TR-FRET signal. […] PI4KB (PI4K beta) The 2× PI4KB (PI4K beta)/PI Lipid Kinase Substrate mixture was prepared in 50 mM HEPES pH 7.5, 0.1% CHAPS, 1 mM EGTA, 4 mM MgCl2. […]

Structure (SMILES): Nc1nc(N2CCN(C(=O)COc3ccc(Cl)cc3)CC2)c2nc(-c3cccnc3)sc2n1 [formula (1), 5-amino-7-[4-(4-chlorophenoxyacetyl)piperazin-1-yl]-2-(pyridin-3-yl)thiazolo[5,4-d]pyrimidine]
- Kinase activity: 108 percentage of control

Reference: US9301961B2, “Autoimmune and inflammatory disorder therapy” (Katholieke Universiteit Leuven, K.U. Leuven R&D, priority 2011, dated 2016)
